Data reported in US4778816A, “Anti-asthmatic composition and process for preparing the same” (Wakamoto Pharmaceutical Co., Ltd., priority 1984, dated 1988).

Columns and labels:
release of histamine [1] = test: Inhibitory effect on the release of histamine from guinea pig lung slices (Test Example 1); type: cell-based; conditions: for Histamine release-inhibition rate: average of three measurements
release of SRS-A [2] = test: Inhibitory effect on the release of SRS-A from guinea pig lung slices (Test Example 1); type: cell-based; conditions: for SRS-A release-inhibition rate: average of three measurements
release of SRS-A [3] = test: Inhibitory effect on the release of SRS-A from rhesus monkey lung slices (Test Example 2); type: cell-based; conditions: average of three measurements
Procedure: (§1) Inhibitory effect of MTB on the release of histamine and SRS-A from rhesus monkey lung slices
(§2) Rhesus monkey lungs were cut into slices, which were passively sensitized with human atopy blood serum.
(§3) Thereafter the test was conducted in the same manner as in Test Example 1 to compare the histamine and SRS-A release-inhibition effect of the present medicine MTB with that of the known medicine DSCG.

release of histamine [4] = test: Inhibitory effect on the release of histamine from human lung slices (Test Example 3); type: cell-based; conditions: average of three measurements
Procedure: (§4) Inhibitory effect of MTB on the release of histamine and SRS-A from human lung slices
(§5) A macrographically normal portion was sampled from a human lung excised in a lung cancer operation and was passively sensitized with human atopy blood serum in a similar manner to the case of the rhesus monkey lung slices mentioned above. Thereafter the histamine and SRS-A release-inhibiting effect of the test medicines was measured in the same manner as in Test Example 1.

release of histamine [5] = test: Inhibitory effect on the release of histamine from rhesus monkey lung slices (Test Example 2); type: cell-based; conditions: average of three measurements
Procedure: as §1, §2, §3

release of SRS-A [6] = test: Inhibitory effect on the release of SRS-A from human lung slices (Test Example 3); type: cell-based; conditions: average of three measurements
Procedure: as §4, §5

[7] = Solubility of MTB original powder in water; type: physicochemical
Acute toxicity in dog = type: in vivo, Dog (beagle); conditions: in vivo, po; dog male, p.o.; read-out: Acute toxicity LD 50
From the text: (§6) Animals tested were as follows.
(§7) Dog: beagle, weight 8 kg, 3 dogs per group

Dog = test: Acute toxicity in dog; type: in vivo, Dog (beagle); conditions: dog female, p.o.
From the text: as §6, §7

Acute toxicity in rat = test: Acute toxicity in rat; design: species or system Rat (wistar); conditions: in vivo, read-out: Acute toxicity LD 50
From the text: as §6
Rat: wistar, weight 110-130 g 10 rats per group

experimental asthma = test: Effect of preventing experimental asthma (Test Example 4); type: in vivo, guinea pig; conditions: 250 mg/kg oral; for Tidal volume-decrease rate: 60 min before causing asthma, average of seven
release of histamine [8] = conditions: Japanese Journal of Pharmacology, Vol. 32, pages 689-697, 1982; cited from earlier work
Acute toxicity in mouse = test: Acute toxicity in mouse; design: species or system Mouse (ddy); conditions: in vivo, read-out: Acute toxicity LD 50
From the text: as §6
Mouse: ddy, weight 20-23 g, 20 mice per group

[9] = Differential thermal scanning calorimeter measurement of crystal structure; type: physicochemical; conditions: DSC 30 type, Shimadzu
From the text: From this observation, it has been confirmed that the treatment with the non-aqueous solvent in the new preparation process not only increases the mixing efficiency but also brings about a change in the crystal structure itself of MTB.

Molecule `O=C(O)c1cc(=O)c2c(OCC(O)COc3cccc4oc(C(=O)O)cc(=O)c34)cccc2o1` [DSCG, disodium cromoglicate, reference compound] has a Histamine release-inhibition rate (release of histamine [1]; 10^-4 g/ml) of 2%, a Histamine release-inhibition rate (release of histamine [1]; 10^-5 g/ml) of 0% and an SRS-A release-inhibition rate (release of SRS-A [2]; 10^-4 g/ml) of 13%. For the same molecule, the SRS-A release-inhibition rate (release of SRS-A [2]; 10^-5 g/ml) was 9%, the SRS-A release-inhibition rate (release of SRS-A [3]; 10^-4 g/ml) was 2% and the SRS-A release-inhibition rate (release of SRS-A [3]; 10^-5 g/ml) was 0%. It also gave a Histamine release-inhibition rate (release of histamine [4]; 10^-4 g/ml) of 18%, a Histamine release-inhibition rate (release of histamine [4]; 10^-5 g/ml) of 13% and a Histamine release-inhibition rate (release of histamine [5]; 10^-4 g/ml) of 0%. It also gave a Histamine release-inhibition rate (release of histamine [5]; 10^-5 g/ml) of 0%, an SRS-A release-inhibition rate (release of SRS-A [6]; 10^-4 g/ml) of 39% and an SRS-A release-inhibition rate (release of SRS-A [6]; 10^-5 g/ml) of 41%.

In the case of `CCCCOC(=O)C(=O)Nc1cccc(-c2nnn[nH]2)c1` [MTB, 5-(3-n-butyloxalyl-aminophenyl) tetrazole], the “solubility in water (in words)” value [7] is reported as “practically insoluble in water”, the LD50 (Acute toxicity in dog) is reported as greater than 4000 mg/kg and the “Acute toxicity LD 50” value (Dog) is reported as greater than 4000 mg/kg. The “histamine release-inhibition rate compared with DSCG and N-5' (in words)” value (release of histamine [1]) was “remarkably high”, the Histamine release-inhibition rate (release of histamine [1]; 10^-4 g/ml) was 37% and the Histamine release-inhibition rate (release of histamine [1]; 10^-5 g/ml) was 30%. The Histamine release-inhibition rate (release of histamine [1]; 10^-6 g/ml) was 14%, the Histamine release-inhibition rate (release of histamine [1]; 10^-7 g/ml) was 6% and the Histamine release-inhibition rate (release of histamine [1]; 10^-8 g/ml) was 8%. For the same molecule, the “SRS-A release-inhibition rate compared with DSCG and N-5' (in words)” value (release of SRS-A [2]) was “remarkably high”, the SRS-A release-inhibition rate (release of SRS-A [2]; 10^-4 g/ml) was 64% and the SRS-A release-inhibition rate (release of SRS-A [2]; 10^-5 g/ml) was 66%. The SRS-A release-inhibition rate (release of SRS-A [2]; 10^-6 g/ml) was 49%, the SRS-A release-inhibition rate (release of SRS-A [2]; 10^-7 g/ml) was 28% and the SRS-A release-inhibition rate (release of SRS-A [2]; 10^-8 g/ml) was 2%. The LD50 (Acute toxicity in rat; ip, rat female, i.p.) was 1430 mg/kg, the LD50 (Acute toxicity in rat; ip, rat male, i.p.) was 1430 mg/kg and the LD50 (Acute toxicity in rat; iv, rat female, i.v.) was 1160 mg/kg. It also gave an LD50 (Acute toxicity in rat; iv, rat male, i.v.) of 1110 mg/kg, an LD50 (Acute toxicity in rat; po, rat female, p.o.) greater than 4000 mg/kg and an LD50 (Acute toxicity in rat; po, rat male, p.o.) greater than 4000 mg/kg. The LD50 (Acute toxicity in rat; sc, rat female, s.c.) was greater than 4000 mg/kg, the LD50 (Acute toxicity in rat; sc, rat male, s.c.) was greater than 4000 mg/kg and the SRS-A release-inhibition rate (release of SRS-A [3]; 10^-4 g/ml) was 16%. For the same molecule, the SRS-A release-inhibition rate (release of SRS-A [3]; 10^-5 g/ml) was 17%, the SRS-A release-inhibition rate (release of SRS-A [3]; 10^-6 g/ml) was 18% and the SRS-A release-inhibition rate (release of SRS-A [3]; 10^-7 g/ml) was 0%. For the same molecule, the Tidal volume-decrease rate (experimental asthma; 0 min) was 0%, the “decrease in unit tidal volume compared with control and N-5' (in words)” value (experimental asthma) was “remarkably low rate of decrease in unit tidal volume” and the Tidal volume-decrease rate (experimental asthma; 1 min) was 17%. For the same molecule, the Tidal volume-decrease rate (experimental asthma; 2 min) was 17%, the Tidal volume-decrease rate (experimental asthma; 3 min) was 21% and the Tidal volume-decrease rate (experimental asthma; 4 min) was 23%. It also gave a Tidal volume-decrease rate (experimental asthma; 5 min) of 21%, a Tidal volume-decrease rate (experimental asthma; 6 min) of 22% and a Tidal volume-decrease rate (experimental asthma; 8 min) of 21%. It also gave a Tidal volume-decrease rate (experimental asthma; 10 min) of 21%, a Tidal volume-decrease rate (experimental asthma; 15 min) of 14% and a Tidal volume-decrease rate (experimental asthma; 20 min) of 19%. For the same molecule, the Tidal volume-decrease rate (experimental asthma; 30 min) was 15%, the Histamine release-inhibition rate (release of histamine [4]; 10^-4 g/ml) was 27% and the Histamine release-inhibition rate (release of histamine [4]; 10^-5 g/ml) was 23%. For the same molecule, the Histamine release-inhibition rate (release of histamine [4]; 10^-6 g/ml) was 23%, the Histamine release-inhibition rate (release of histamine [4]; 10^-7 g/ml) was 8% and the Histamine release-inhibition rate (release of histamine [4]; 10^-8 g/ml) was 0%. For the same molecule, the “anti-allergic action (in words)” value (release of histamine [8]) was “anti-allergic action, inhibiting the release of histamine”, the LD50 (Acute toxicity in mouse; ip, mouse female, i.p.) was 1160 mg/kg and the LD50 (Acute toxicity in mouse; ip, mouse male, i.p.) was 1120 mg/kg. It also gave an LD50 (Acute toxicity in mouse; iv, mouse female, i.v.) of 1220 mg/kg, an LD50 (Acute toxicity in mouse; iv, mouse male, i.v.) of 1130 mg/kg and an LD50 (Acute toxicity in mouse; po, mouse female, p.o.) greater than 4000 mg/kg. The LD50 (Acute toxicity in mouse; po, mouse male, p.o.) was greater than 4000 mg/kg, the LD50 (Acute toxicity in mouse; sc, mouse female, s.c.) was greater than 4000 mg/kg and the LD50 (Acute toxicity in mouse; sc, mouse male, s.c.) was greater than 4000 mg/kg. It also gave a Histamine release-inhibition rate (release of histamine [5]; 10^-4 g/ml) of 27%, a Histamine release-inhibition rate (release of histamine [5]; 10^-5 g/ml) of 2% and a Histamine release-inhibition rate (release of histamine [5]; 10^-6 g/ml) of 12%. It also gave a Histamine release-inhibition rate (release of histamine [5]; 10^-7 g/ml) of 0%, an SRS-A release-inhibition rate (release of SRS-A [6]; 10^-4 g/ml) of 47% and an SRS-A release-inhibition rate (release of SRS-A [6]; 10^-5 g/ml) of 47%. For the same molecule, the SRS-A release-inhibition rate (release of SRS-A [6]; 10^-6 g/ml) was 43%, the SRS-A release-inhibition rate (release of SRS-A [6]; 10^-7 g/ml) was 31% and the SRS-A release-inhibition rate (release of SRS-A [6]; 10^-8 g/ml) was 2%. The “peak of absorption indicating the crystal structure (DSC)” value [9] was “shows a peak of absorption indicating the crystal structure”.

For `COc1ccc(/C=C/C(=O)Nc2ccccc2C(=O)O)cc1OC` [N-5', tranilast, reference compound], the Histamine release-inhibition rate (release of histamine [1]; 10^-4 g/ml) was 16%, the Histamine release-inhibition rate (release of histamine [1]; 10^-5 g/ml) was 5% and the SRS-A release-inhibition rate (release of SRS-A [2]; 10^-4 g/ml) was 54%. The SRS-A release-inhibition rate (release of SRS-A [2]; 10^-5 g/ml) was 11%, the Tidal volume-decrease rate (experimental asthma; 0 min) was 0% and the Tidal volume-decrease rate (experimental asthma; 1 min) was 26%. The Tidal volume-decrease rate (experimental asthma; 2 min) was 24%, the Tidal volume-decrease rate (experimental asthma; 3 min) was 24% and the Tidal volume-decrease rate (experimental asthma; 4 min) was 26%. For the same molecule, the Tidal volume-decrease rate (experimental asthma; 5 min) was 23%, the Tidal volume-decrease rate (experimental asthma; 6 min) was 25% and the Tidal volume-decrease rate (experimental asthma; 8 min) was 28%. It also gave a Tidal volume-decrease rate (experimental asthma; 10 min) of 24%, a Tidal volume-decrease rate (experimental asthma; 15 min) of 27% and a Tidal volume-decrease rate (experimental asthma; 20 min) of 22%. The Tidal volume-decrease rate (experimental asthma; 30 min) was 19%, the Histamine release-inhibition rate (release of histamine [4]; 10^-4 g/ml) was 31% and the Histamine release-inhibition rate (release of histamine [4]; 10^-5 g/ml) was 16%. It also gave an SRS-A release-inhibition rate (release of SRS-A [6]; 10^-4 g/ml) of 37% and an SRS-A release-inhibition rate (release of SRS-A [6]; 10^-5 g/ml) of 32%.
